pIC50: −log10 of the molar value.
Key:
[1] = biological target: T1, recombinant HIV reverse transcriptase (HIV RTR) (Human immunodeficiency virus type 1 group M subtype B, UniProt P04585); test: Reverse transcriptase assay: incorporation of tritiated deoxyguanosine monophosphate into acid-precipitable cDNA by recombinant HIV reverse transcriptase; assay type: biochemical; conditions: poly r(C).oligo d(G)12-18 template, [3H]dGTP, pH 8.2 buffer, 37° C., 45 minutes
T1 construct: recombinant HIV reverse transcriptase (HIV RTR)
Method: The assay measures the incorporation of tritiated deoxyguanosine monophosphate by recombinant HIV reverse transcriptase (HIV RTR) (or other RT) into acid-precipitable cDNA at the Km values of dGTP and poly r(C).cndot.oligo d(G)12-18.
Thirty uL of a reaction mixture containing equal volumes of: 500 mM Tris.cndot.HCl (pH 8.2), 300 mM MgCl2, 1200 mM KCl, 10 mM DTT, 400 μg/mL poly r(c).cndot.oligo d(G) [prepared by dissolving 1.5 mg (25 U) poly r(C).cndot.oligo d(G) in 1.5 ml sterile distilled H2 O and diluting to 400 μg/ml], 0.1 μCi/μl [^3 H]dGTP, 160 μM dGTP, was added to 10 μl sterile distilled H2 O, and 2.5 μl of potential inhibitor. An aliquot of 10 μL of 5 nM purified HIV RTR was added to initiate the reaction. The mixture was incubated at 37° C. for 45 minutes.
After incubation is complete, the tubes were cooled in ice for 5 minutes. Ice-cold 13% TCA containing 10 mM NaPPi (200 μl) are added and the mixture incubated on ice for 30 minutes. The precipitated cDNA is removed by filtration using presoaked glass filters [TCA, NaPPi ]. The precipitate is then washed with 1N HCl, 10 mM NaPPi.
The filter discs are then counted in a scintillation counter.
Under these conditions [dGTP] and poly r(C).cndot.oligo d(G)12-18 each are approximately equal to the appropriate Km value. Approximately 5-6,000 cpm of [^3 H] GMP are incorporated into acid-precipitable material. The RT reaction is concentration- and time-dependent. […] The calculated IC50 values for the compounds of this invention are as follows: […]

[2] = In vitro metabolism of compound II with rat liver slices; assay type: in vitro ADME; conditions: 157.7 μM, four hours, 37° C., pH 7.4, HPLC photodiode array-UV
Method: Compound II (157.7 μM) was incubated with rat liver slices (10.17 g wet weight, 250-400 μ thick, ~1.2 cm wide) in 100 ml of Williams' Medium E at pH 7.4 and at 37° C. under an atmosphere of 95% oxygen and 5% carbon dioxide. After four hours the incubation mixture was extracted with ethyl acetate. The extract was evaporated to dryness and the residue reconstituted in methanol. The reconstitute was subjected to preparative HPLC on a reverse-phase column with an on-line UV-diode array detector. Three major metabolites--Ia, Ib and Ic--were isolated for characterization by NMR spectroscopy and mass spectrometry.
The three major products were identified by proton NMR (500 MHz; see Table below) and mass spectrometry as resulting from α-hydroxylation of the ethyl group on the pyridinone (HPLC Peak designating compound Ia), and β- and α-hydroxylation of the ethyl group on the pyridine (designated compounds Ic and Ib, respectively). [drawing 14]

Structure (SMILES)	pIC50 [1]	number of major products (metabolites) formed [2]	number of minor products formed [2]
CCc1cc(CNc2cc(C(C)O)c(C)[nH]c2=O)c(OC)nc1C (stereo not drawn) [Ia, 3-[3-(5-ethyl-2-methoxy-6-methylpyridyl)methyl]amino-5-(1-hydroxy)ethyl-6-m ethyl-2(1H )-pyridinone]	6.71		
CCc1cc(NCc2cc(CC)c(C)nc2OC)c(O)nc1C [Compound II, 3-[3-(5-ethyl-2-methoxy-6-methylpyridyl)methyl]amino-5-ethyl-6-methyl-2(1H)-pyridinone]	7.54	three	at least 5
CCc1cc(NCc2cc(C(C)O)c(C)nc2OC)c(=O)[nH]c1C (stereo not drawn) [Ib, 3-[3-(5-(1-hydroxy)ethyl-2-methoxy-6-methylpyridyl)methyl]amino-5-ethyl-6-m ethyl-2(1H)-pyridinone]	6.41		
CCc1cc(NCc2cc(CCO)c(C)nc2OC)c(=O)[nH]c1C [Ic, 3-[3-(5-(2-hydroxy)ethyl-2-methoxy-6-methylpyridyl)-methyl]amino-5-ethyl-6-methyl-2(1H)-pyridinone]	6.60		

Source: patent US5364776A, “Method of hydroxylating 3-[3-(5-ethyl-2-methoxy-6-methylpyridyl)methyl]amino-5-ethyl-6-methyl-2( 1H)-pyridinone with liver slices” (Merck & Co., Inc., priority 1992, dated 1994)
